Experimental findings from publication PMC10535318, “Benzimidazole-Based Schiff Base Hybrid Scaffolds: A Promising Approach to Develop Multi-Target Drugs for Alzheimer’s Disease” (Pharmaceuticals, 2023) are described below.

Assay [1] deals with T1, acetylcholinesterase (AChE) (Homo sapiens, UniProt P22303).
T1 construct: purchased Sigma-Aldrich (Steinheim, Germany)
Nature of the assay: biochemical. On the procedure:
(§1) All chemicals and reagents employed in the study were obtained from Merck or Sigma-Aldrich (St. Louis, MO, USA) (Darmstadt, Germany). Acetylcholinesterase (E.C.3.1.1.7) and butyrylcholinesterase (E.C. 3.1.1.8) were procured from Sigma–Aldrich (Steinheim, Germany). The ^1H NMR and ^13C NMR spectra were recorded using a Bruker FT-NMR spectrometer operating at the digital frequencies of 600 and 150 MHz (Bioscience, Bruker, Billerica, MA, USA). Mass spectra were acquired utilizing a Shimadzu LCMS-IT-TOF system (Kyoto, Japan) employing the electrospray ionization (ESI) technique. The purity of synthesized derivatives was checked through thin-layer chromatography using silica gel 60 F254 (Merck, KGaA, Darmstadt, Germany).
(§2) The study was carried out following the guidelines outlined in our previously published study.

Assay [2] has as its target T2, butyrylcholinesterase (BuChE) (Homo sapiens, UniProt P06276).
T2 construct: purchased Sigma-Aldrich (Steinheim, Germany)
Nature of the assay: biochemical. The protocol: as §1, §2

[3] abbreviates: in vitro, value ± standard error mean, read-out: AChE Inhibition IC50 ± SEM.
[4] abbreviates: in vitro, value ± standard error mean, read-out: BuChE Inhibition IC50 ± SEM.

Molecules are shown by their SMILES. Read-outs that look alike come from different tables or passages of the source.

In general, IC50 refers to the midpoint of a concentration-inhibition curve.

T1 sequence (P22303 32-614, species assumed): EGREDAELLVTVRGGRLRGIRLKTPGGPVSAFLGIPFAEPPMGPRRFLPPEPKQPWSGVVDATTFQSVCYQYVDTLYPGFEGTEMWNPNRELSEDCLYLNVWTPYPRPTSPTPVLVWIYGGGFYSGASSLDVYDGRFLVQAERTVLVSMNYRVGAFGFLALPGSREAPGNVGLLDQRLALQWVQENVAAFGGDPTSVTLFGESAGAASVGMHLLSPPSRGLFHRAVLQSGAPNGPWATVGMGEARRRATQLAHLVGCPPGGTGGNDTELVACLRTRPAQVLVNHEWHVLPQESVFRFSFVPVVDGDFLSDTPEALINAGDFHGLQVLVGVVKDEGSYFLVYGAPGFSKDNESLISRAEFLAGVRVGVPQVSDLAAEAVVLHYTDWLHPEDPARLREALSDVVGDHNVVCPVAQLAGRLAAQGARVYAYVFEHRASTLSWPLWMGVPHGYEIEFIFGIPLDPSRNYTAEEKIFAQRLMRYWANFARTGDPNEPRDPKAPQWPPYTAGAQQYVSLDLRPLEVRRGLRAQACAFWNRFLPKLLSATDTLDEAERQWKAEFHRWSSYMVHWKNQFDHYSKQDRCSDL
T2 sequence (P06276 29-602): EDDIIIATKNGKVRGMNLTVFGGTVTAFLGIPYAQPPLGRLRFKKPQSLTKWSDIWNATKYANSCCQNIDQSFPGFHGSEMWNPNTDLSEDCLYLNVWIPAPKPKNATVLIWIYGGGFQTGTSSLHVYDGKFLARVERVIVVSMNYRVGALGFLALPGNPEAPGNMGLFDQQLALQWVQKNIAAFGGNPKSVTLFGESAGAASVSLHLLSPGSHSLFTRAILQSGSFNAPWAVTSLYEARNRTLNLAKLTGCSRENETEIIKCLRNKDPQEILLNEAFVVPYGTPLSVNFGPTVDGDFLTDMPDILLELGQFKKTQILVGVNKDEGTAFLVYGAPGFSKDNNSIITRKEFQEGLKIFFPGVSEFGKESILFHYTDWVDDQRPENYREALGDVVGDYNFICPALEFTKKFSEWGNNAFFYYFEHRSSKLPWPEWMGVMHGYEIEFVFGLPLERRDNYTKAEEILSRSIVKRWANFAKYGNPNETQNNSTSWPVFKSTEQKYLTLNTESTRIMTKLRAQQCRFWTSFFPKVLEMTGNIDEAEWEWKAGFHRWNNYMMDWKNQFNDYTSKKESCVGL

Consider `O=[N+]([O-])c1ccc(/C(CSc2nc3ccccc3[nH]2)=N/C2=CC=C(Nc3ccc([N+](=O)[O-])cc3O)C2)cc1` [Compound 1, (Z)-2-((4-((2-((1H-benzo[d]imidazol-2-yl)thio)-1-(4-nitrophenyl)ethylidene)amino)cyclopenta-1,3-dien-1-yl)amino)-5-nitrophenol], for which the IC50 stood at 214 ± 11.6 µM in assay [1] and 249 ± 10.9 µM in assay [2].

`Cc1cc([N+](=O)[O-])ccc1/C(CSc1nc2ccccc2[nH]1)=N/C1=CC=C(Nc2ccc([N+](=O)[O-])cc2O)C1` [Compound 2, (Z)-2-((4-((2-((1H-benzo[d]imidazol-2-yl)thio)-1-(2-methyl-4-nitrophenyl)ethylidene)amino)cyclopenta-1,3-dien-1-yl)amino)-5-nitrophenol]: the IC50 in assay [1] turned out to be 199 ± 10.2 µM; in assay [2], 204 ± 8.2 µM.

Regarding `O=[N+]([O-])c1ccc(NC2=CC=C(/N=C(\CSc3nc4ccccc4[nH]3)c3ccccc3[N+](=O)[O-])C2)c(O)c1` [Compound 3, (Z)-2-((4-((2-((1H-benzo[d]imidazol-2-yl)thio)-1-(2-nitrophenyl)ethylidene)amino)cyclopenta-1,3-dien-1-yl)amino)-5-nitrophenol], the IC50 in assay [1] was determined as 124 ± 10.2 µM; in assay [2], 131 ± 9.7 µM.

`Cc1ccc(/C(CSc2nc3ccccc3[nH]2)=N/C2=CC=C(Nc3ccc([N+](=O)[O-])cc3O)C2)cc1` [Compound 4, (Z)-2-((4-((2-((1H-benzo[d]imidazol-2-yl)thio)-1-(p-tolyl)ethylidene)amino)cyclopenta-1,3-dien-1-yl)amino)-5-nitrophenol]: the IC50 in assay [1] (setting [3]) was 274 ± 7.6 µM; in assay [2] (setting [4]), 285 ± 8.2 µM.

`O=[N+]([O-])c1ccc(NC2=CC=C(/N=C(\CSc3nc4ccccc4[nH]3)c3ccc(Cl)c(Cl)c3)C2)c(O)c1` [Compound 5, (Z)-2-((4-((2-((1H-benzo[d]imidazol-2-yl)thio)-1-(3,4-dichlorophenyl)ethylidene)amino)cyclopenta-1,3-dien-1-yl)amino)-5-nitrophenol]: the results for the IC50 in assay [1] (setting [3]) and in assay [2] (setting [4]) were 169 ± 7.7 µM and 179 ± 6.7 µM, respectively.

In the case of `O=[N+]([O-])c1ccc(NC2=CC=C(/N=C(\CSc3nc4ccccc4[nH]3)c3ccc([N+](=O)[O-])cc3Br)C2)c(O)c1` [Compound 6, (Z)-2-((4-((2-((1H-benzo[d]imidazol-2-yl)thio)-1-(2-bromo-4-nitrophenyl)ethylidene)amino)cyclopenta-1,3-dien-1-yl)amino)-5-nitrophenol], the figures for the IC50 in assay [1] and in assay [2] were 226 ± 10.1 µM and 274 ± 13.8 µM, respectively.

For `O=[N+]([O-])c1ccc(NC2=CC=C(/N=C(\CSc3nc4ccccc4[nH]3)c3ccccc3Br)C2)c(O)c1` [Compound 7, (Z)-2-((4-((2-((1H-benzo[d]imidazol-2-yl)thio)-1-(2-bromophenyl)ethylidene)amino)cyclopenta-1,3-dien-1-yl)amino)-5-nitrophenol], the IC50 came to 314 ± 12.8 µM in assay [1] (setting [3]) and 326 ± 13.1 µM in assay [2] (setting [4]).

For the compound `Cc1ccccc1/C(CSc1nc2ccccc2[nH]1)=N/C1=CC=C(Nc2ccc([N+](=O)[O-])cc2O)C1` [Compound 8, (Z)-2-((4-((2-((1H-benzo[d]imidazol-2-yl)thio)-1-(o-tolyl)ethylidene)amino)cyclopenta-1,3-dien-1-yl)amino)-5-nitrophenol], the IC50 in assay [1] (setting [3]) turned out to be 291 ± 12.6 µM; in assay [2] (setting [4]), 304 ± 13.8 µM.

As to `COc1ccc(/C(CSc2nc3ccccc3[nH]2)=N/C2=CC=C(Nc3cccc([N+](=O)[O-])c3)C2)cc1O` [Compound 9, (Z)-5-(2-((1H-benzo[d]imidazol-2-yl)thio)-1-((4-((3-nitrophenyl)amino)cyclopenta-1,3-dien-1-yl)imino)ethyl)-2-methoxyphenol], the IC50 in assay [1] (setting [3]) is 174 ± 6.76 µM; in assay [2] (setting [4]), 181 ± 8.5 µM.

For `O=[N+]([O-])c1ccc(NC2=CC=C(/N=C(\CSc3nc4ccccc4[nH]3)c3ccccc3)C2)c(O)c1` [Compound 10, (Z)-2-((4-((2-((1H-benzo[d]imidazol-2-yl)thio)-1-phenylethylidene)amino)cyclopenta-1,3-dien-1-yl)amino)-5-nitrophenol], the figures for the IC50 in assay [1] (setting [3]) and in assay [2] (setting [4]) were 343 ± 10.6 µM and 376 ± 12.8 µM, respectively.

Take `O=[N+]([O-])c1ccc(/C(CSc2nc3ccccc3[nH]2)=N/C2=CC=C(Nc3cccc([N+](=O)[O-])c3)C2)cc1` [Compound 11, (Z)-N-(4-((2-((1H-benzo[d]imidazol-2-yl)thio)-1-(4-nitrophenyl)ethylidene)amino)cyclopenta-1,3-dien-1-yl)-3-nitroaniline]: the IC50 in assay [1] stood at 268 ± 11.7 µM; in assay [2] it was 274 ± 9.1 µM.

With `Cc1ccc(/C(CSc2nc3ccccc3[nH]2)=N/C2=CC=C(Nc3cccc([N+](=O)[O-])c3)C2)cc1` [Compound 12, (Z)-N-(4-((2-((1H-benzo[d]imidazol-2-yl)thio)-1-(p-tolyl)ethylidene)amino)cyclopenta-1,3-dien-1-yl)-3-nitroaniline], the IC50 came to 308 ± 8.8 µM in assay [1] (setting [3]) and 318 ± 9.8 µM in assay [2] (setting [4]).

Regarding `Cc1cccc(/C(CSc2nc3ccccc3[nH]2)=N/C2=CC=C(Nc3cccc([N+](=O)[O-])c3)C2)c1` [Compound 13, (Z)-N-(4-((2-((1H-benzo[d]imidazol-2-yl)thio)-1-(m-tolyl)ethylidene)amino)cyclopenta-1,3-dien-1-yl)-3-nitroaniline], the IC50 in assay [1] (setting [3]) was found to be 321 ± 13.5 µM; in assay [2] (setting [4]), 354 ± 12.7 µM.

With `Cc1ccccc1/C(CSc1nc2ccccc2[nH]1)=N/C1=CC=C(Nc2cccc([N+](=O)[O-])c2)C1` [Compound 14, (Z)-N-(4-((2-((1H-benzo[d]imidazol-2-yl)thio)-1-(o-tolyl)ethylidene)amino)cyclopenta-1,3-dien-1-yl)-3-nitroaniline], the IC50 amounted to 289 ± 11.5 µM in assay [1] (setting [3]) and 311 ± 12.3 µM in assay [2] (setting [4]).

Regarding `Cc1cc([N+](=O)[O-])ccc1/C(CSc1nc2ccccc2[nH]1)=N/C1=CC=C(Nc2cccc([N+](=O)[O-])c2)C1` [Compound 15, (Z)-N-(4-((2-((1H-benzo[d]imidazol-2-yl)thio)-1-(2-methyl-4-nitrophenyl)ethylidene)amino)cyclopenta-1,3-dien-1-yl)-3-nitroaniline], the IC50 in assay [1] came to 217 ± 8.28 µM; in assay [2], 221 ± 8.7 µM.

Turning to `O=[N+]([O-])c1cccc(NC2=CC=C(/N=C(\CSc3nc4ccccc4[nH]3)c3ccccc3Br)C2)c1` [Compound 17, (Z)-N-(4-((2-((1H-benzo[d]imidazol-2-yl)thio)-1-(2-bromophenyl)ethylidene)amino)cyclopenta-1,3-dien-1-yl)-3-nitroaniline], the results for the IC50 in assay [1] (setting [3]) and in assay [2] (setting [4]) were 234 ± 10.1 µM and 269 ± 9.6 µM, respectively.

For `O=[N+]([O-])c1cccc(NC2=CC=C(/N=C(\CSc3nc4ccccc4[nH]3)c3ccc([N+](=O)[O-])cc3Br)C2)c1` [Compound 18, (Z)-N-(4-((2-((1H-benzo[d]imidazol-2-yl)thio)-1-(2-bromo-4-nitrophenyl)ethylidene)amino)cyclopenta-1,3-dien-1-yl)-3-nitroaniline], the IC50 in assay [1] was determined as 214 ± 8.2 µM; in assay [2], 247 ± 9.1 µM.
